Data: the NIST ThermoML archive (doi:10.1021/acs.jced.8b00930)

Conditions: Liquid, Capillary tube (Ostwald / Ubbelohde) method

CCCCCCCCCCCCCCCC [hexadecane]
Conditions	viscosity [mPa·s]
322.7 K, 1940 kPa	1.885
323.7 K, 970 kPa	1.857
323.7 K, 3000 kPa	1.904
323.8 K, 1980 kPa	1.878
323.8 K, 3910 kPa	1.925
372.7 K, 990 kPa	0.909
372.7 K, 1960 kPa	0.922
372.8 K, 2970 kPa	0.929
372.8 K, 3950 kPa	0.947
373.9 K, 980 kPa	0.896
373.9 K, 2000 kPa	0.909
373.9 K, 2980 kPa	0.915
373.9 K, 3900 kPa	0.936
422.9 K, 1990 kPa	0.554
422.9 K, 2970 kPa	0.557
422.9 K, 3840 kPa	0.568
471.9 K, 1000 kPa	0.358
472 K, 2010 kPa	0.363
472.1 K, 2910 kPa	0.371
472.1 K, 3870 kPa	0.374
473.7 K, 3990 kPa	0.375
521.9 K, 970 kPa	0.245
521.9 K, 1960 kPa	0.254
521.9 K, 2950 kPa	0.26
522 K, 3830 kPa	0.267
572.1 K, 2930 kPa	0.192
572.2 K, 2000 kPa	0.187
572.2 K, 3850 kPa	0.196
621.9 K, 2010 kPa	0.131
622 K, 2890 kPa	0.137
622.1 K, 3820 kPa	0.142
623.2 K, 3990 kPa	0.143
672.6 K, 3990 kPa	0.104
673.2 K, 2000 kPa	0.091
673.6 K, 3000 kPa	0.097
